Results taken from US20250347685A1, “DONOR-ACCEPTOR CONJUGATED OLIGOELECTROLYTES FOR CELL LABELLING AND METHODS THEREOF” (National University of Singapore, priority 2021, published 2025).

Legend:
[1] = COE intercalation into lipid bilayer of SUVs, emission measured with a fluorimeter; assay type: physicochemical; conditions: in PBS
Procedure: Liposomes were prepared using the protocol as follows. Phospholipids (ex. POPC, POPE, and POPG) in chloroform solution were mixed to a proper molar ratio and dried under a gentle stream of nitrogen. The dried lipids were further desiccated in a vacuum overnight to obtain a thin lipid film. For preparing small unilamellar vesicles (SUVs), rehydration of the dried film was carried out by adding phosphate buffered saline (PBS) to a concentration of 5 mg mL-1, followed by incubation at 35° C. for 2 h under constant stirring at ˜300 rpm. Then, the vesicles were extruded using a 100 nm membrane at 45° C. 21 times to obtain SUV samples. Vesicles were kept at 4° C. until further use.
When mixing the SUVs with COE-BT, the COE will intercalate into the lipid bilayers. This is spontaneously driven by the electrostatic and hydrophobic interactions between the COEs and the lipids. As a result, a significant emission enhancement is observed. For example, relative to the COE-BT solution, the emission intensity of the SUV and COE-BT complexes increases more than 400 times between 600 to 630 nm. […] By adjusting different chemical structures, the COEs can achieve different emission wavelengths, ranging from “green”, “red”, to even “infrared” (FIGS. 14 & 15). The various color choices confer COE dyes with high compatibility in using multiple dyes concurrently.

[2] = Dynamic light scattering of liposome size and uniformity after COE addition; assay type: physicochemical; conditions: 10 μM COE into 1 mg/mL SUV samples
Procedure: To identify whether COE treatment will alter the morphology of liposomes (e.g., inducing the fusion or fission of liposomes), dynamic light scattering (DLS) measurements with a lipid SUV model were employed (FIG. 16). The SUVs were obtained after extrusion using a 100 nm membrane. […] After addition of 10 μM COE-BBT into the 1 mg/mL SUV samples, the Z-average size is 104.8±32.65 nm with a PDI of 0.054.

SW480 exosomes = test: NanoAnalyzer (NanoFCM) flow analysis of dye-labelled SW480 exosomes and dye only controls; conditions: for % Positive for dye: after purifying excess dyes using ultracentrifugation; for Number of particle counts, positive / Number of particle counts, total: dye only controls
Procedure: In another example, exosomes isolated from SW480 colon cancer cell lines and purified using size exclusion chromatography were kindly provided by NanoFCM (UK). The labelling and flow cytometry analysis were also carried out by the trained technicians at NanoFCM (UK). […] The mixture was left to incubate at room temperature for 30 min and then diluted 100 times using PBS before analysis on the NanoAnalyzer (NanoFCM). Detection of the exosomes was carried out on the small threshold settings (68-155 S16M-Exo) and analysis of the labelled population was done on the PC5 channel (Ex488/Em670). Dye control samples were prepared by replacing the 9 μL exosome solution with PBS, followed by the same steps as the exosome samples for flow analysis. The results were validated through at least two replicates. In a separate experiment, the labelled exosomes were also purified of excess dyes using standard ultracentrifugation methods before analyzing as per described above.

HCT 116 Exosomes = test: Flow cytometry of exosomes labelled with COE compound
Procedure: Exosome were prepared via the following protocol: Exosomes were purchased from ATCC, aliquoted and stored at −80° C. A single aliquot was removed from −80° C. and placed on ice. Exosomes were diluted 10 times in cell culture grade PBS. 8 μL of the exosome suspension was mixed with between […] of COE compound. This was placed on ice for 10-minutes before being diluted 100 times in PBS to an approximate final concentration of 6×10^6 particles/mL of exosomes and 25-1 nM of COE.
Samples were briefly vortexed and used for flow cytometry. Flow cytometry measurements were obtained by measuring the side scattering on the violet laser (x-axis) and by measuring fluorescent intensity (y-axis: λexcitation=405, 488 nm λemission=525, 690 nm). […] Using the COE compound, the exosomes can be stained with a low concentration of dye and can be used directly without additional purification.

RBCs = test: Flow cytometry of COE-stained and unstained red blood cells mixed at various ratios; assay type: cell-based, Bovine
Procedure: RBCs (isolated from Bovine whole blood, Innovative Research, Inc.) were diluted 10 times from stock into PBS and centrifuged at 3,000 RPM for 5 minutes. The supernatant was removed, and the pellet was resuspended in PBS. This was repeated for a total of 3 times. The final pellet was resuspended into PBS to be 1% by volume. […] COE compound was added to the RBC suspension and was allowed to incubate for 20 min at RT. The RBC COE compound mixture was then centrifuged again at 3,000 RPM for 5 min. The supernatant was removed and the pellet resuspended in fresh PBS. COE compound stained and unstained RBCs were respectively mixed at various ratios by volume of 0:5, 1:4, 2:3, 3:2, 4:1 and 5:0. The resulting RBC mixtures were diluted 100 times in PBS for flow cytometry experiments.

Red blood cells = test: Flow cytometry of red blood cells from donor's blood labelled with dye; assay type: cell-based
Procedure: Red blood cells were obtained from donor's blood after removing the plasma via centrifugation. The RBC were either used fresh or stored for 22 days. […] The cells were incubated with the dyes for 10 min before centrifuging down at 700 g for 3 min to remove free dyes. The labelled cell pellet was then resuspended in 1 mL of PBS. The cells were then diluted 10× further in PBS before imaging on the 8-well ibidi chamber slides, and analysing for size and fluorescence on the flow cytometry (Cytoflex).

Row | Structure (SMILES) | % Positive for dye (SW480 exosomes; 10 uM) | % Positive for dye (SW480 exosomes; 20 uM) | Number of particle counts, positive (SW480 exosomes; 10 uM) | Number of particle counts, total (SW480 exosomes; 10 uM) | % of events in Area of Interest (HCT 116 Exosomes; Exosome + COE) | All Events/μL (HCT 116 Exosomes; Exosome + COE) | Area of Interest Events/μL (HCT 116 Exosomes; Exosome + COE) | % of events in Area of Interest (HCT 116 Exosomes; dye only, no exosomes) | All Events/μL (HCT 116 Exosomes; dye only, no exosomes) | Area of Interest Events/μL (HCT 116 Exosomes; dye only, no exosomes) | also measured
1 | C[N+](C)(C)CCCCCCOc1cc(/C=C/c2ccc(-c3ccc(-c4c5c(c(-c6ccc(-c7ccc(/C=C/c8cc(OCCCCCC[N+](C)(C)C)c(OCCCCCC[N+](C)(C)C)c(OCCCCCC[N+](C)(C)C)c8)cc7)s6)c6nsnc46)N=S=N5)s3)cc2)cc(OCCCCCC[N+](C)(C)C)c1OCCCCCC[N+](C)(C)C [COE-BBT] | – | – | – | – | – | – | – | – | – | – | emission enhancement after mixing with SUVs (in words) [1]: same phenomenon is seen; PDI of SUVs after COE addition [2]: 0.054; Z-average size of SUVs after COE addition [2]: 104.8±32.65 nm
2 | C[N+](C)(C)CCCCCCOc1cc(/C=C/c2ccc(-c3ccc(-c4ccc(-c5ccc(-c6ccc(/C=C/c7cc(OCCCCCC[N+](C)(C)C)c(OCCCCCC[N+](C)(C)C)c(OCCCCCC[N+](C)(C)C)c7)cc6)s5)c5nonc45)s3)cc2)cc(OCCCCCC[N+](C)(C)C)c1OCCCCCC[N+](C)(C)C.[Br-].[Br-].[Br-].[Br-].[Br-].[Br-] [COE-BO] | 43.10% | 47.60% | 2 | 181 | – | – | – | – | – | – | Percentage + (positive events) (SW480 exosomes; labelled SW480 exosomes, 10 uM, N = 2): 66.55%
3 | C[N+](C)(C)CCCCCCOc1cc(/C=C/c2ccc(-c3ccc(-c4ccc(-c5ccc(-c6ccc(/C=C/c7cc(OCCCCCC[N+](C)(C)C)c(OCCCCCC[N+](C)(C)C)c(OCCCCCC[N+](C)(C)C)c7)cc6)s5)cc4)s3)cc2)cc(OCCCCCC[N+](C)(C)C)c1OCCCCCC[N+](C)(C)C.[I-].[I-].[I-].[I-].[I-].[I-] [COE-Ben] | – | – | – | – | 54.69% | 6071.19 Events/μL | 3314.72 Events/μL | 6.72% | 1480.33 Events/μL | 99.48 Events/μL | –
4 | C[N+](C)(C)CCCCCCOc1cc(/C=C/c2ccc(-c3ccc(-c4ccc(-c5ccc(-c6ccc(/C=C/c7cc(OCCCCCC[N+](C)(C)C)c(OCCCCCC[N+](C)(C)C)c(OCCCCCC[N+](C)(C)C)c7)cc6)cc5)cc4)cc3)cc2)cc(OCCCCCC[N+](C)(C)C)c1OCCCCCC[N+](C)(C)C.[I-].[I-].[I-].[I-].[I-].[I-] [COE-Quin] | – | – | – | – | 63.71% | 6088.97 Events/μL | 3878.99 Events/μL | 7.98% | 1438.47 Events/μL | 114.78 Events/μL | –
5 | C[N+](C)(C)CCCCCCOc1cc(/C=C/c2ccc(/C=C/c3ccc(/C=C/c4ccc(/C=C/c5ccc(/C=C/c6cc(OCCCCCC[N+](C)(C)C)c(OCCCCCC[N+](C)(C)C)c(OCCCCCC[N+](C)(C)C)c6)cc5)cc4)cc3)cc2)cc(OCCCCCC[N+](C)(C)C)c1OCCCCCC[N+](C)(C)C.[I-].[I-].[I-].[I-].[I-].[I-] [COE-S6] | – | – | – | – | 63.67% | 5113.31 Events/μL | 3255.41 Events/μL | 1.41% | 2909.37 Events/μL | 41.08 Events/μL | RBC + COE-S6 Events/μL (RBCs; stained to unstained RBCs 1:4): 207.2 Events/μL; RBC Events/μL (RBCs; stained to unstained RBCs 1:4): 891.58 Events/μL; total events/μL (RBCs; stained to unstained RBCs 1:4): 1098 events/μL; RBC + COE-S6 Events/μL (RBCs; stained to unstained RBCs 2:3): 312.27 Events/μL; RBC Events/μL (RBCs; stained to unstained RBCs 2:3): 812.03 Events/μL; total events/μL (RBCs; stained to unstained RBCs 2:3): 1124 events/μL; RBC + COE-S6 Events/μL (RBCs; stained to unstained RBCs 3:2): 767.09 Events/μL; RBC Events/μL (RBCs; stained to unstained RBCs 3:2): 470.71 Events/μL; total events/μL (RBCs; stained to unstained RBCs 3:2): 1237 events/μL; RBC + COE-S6 Events/μL (RBCs; stained to unstained RBCs 4:1): 1039.71 Events/μL; RBC Events/μL (RBCs; stained to unstained RBCs 4:1): 225.64 Events/μL; total events/μL (RBCs; stained to unstained RBCs 4:1): 1265 events/μL; RBC + COE-S6 Events/μL (RBCs; stained to unstained RBCs 5:0): 450.48 Events/μL; RBC Events/μL (RBCs; stained to unstained RBCs 5:0): 2.98 Events/μL; total events/μL (RBCs; stained to unstained RBCs 5:0): 453 events/μL; artifact to the morphology of the RBC (FSC/SSC dot plots) (Red blood cells; 1 μM COE-S6): does not introduce an artifact; change in fluorescence of RBCs labelled with increasing dye concentrations (Red blood cells; histograms, FIG. 35 d-e): increase in fluorescence; homogeneity of RBC labelling (coefficient of variance of histogram data) (Red blood cells; versus Cell Mask Deep Red): more homogeneous and uniform
6 | CCCCCCCCCCCCCCCCCCCCCC[N+]1=C(/C=C/C=C2/N(CCCCCCCCCCCCCC)c3ccccc3C2(C)C)C(C)(C)c2ccccc21.[I-] [PKH-26, reference compound] | 22.00% | 19.90% | 636 | 637 | – | – | – | – | – | – | –
